Experimental data taken from patent publication US10392422B2, “Macrocyclic broad spectrum antibiotics” (priority 2014, dated 2019).
Converted amounts (≈) assume the structure as drawn. Like-named read-outs stand apart in the source and are kept apart here.

Experiments:
Assay in all cases: MIC, broth micro-dilution technique (CLSI)
[1] = test system: Methicillin Resistant Staphylococcus aureus strain USA 300 (NRS384); assay type: cell-based; settings: for MIC: Staphylococcus aureus, 22 h, read-out: MIC (μg/mL) S. aureus
Protocol: (§1) In vitro antimicrobial activity of each compound was determined by measuring minimal inhibitor concentrations (MICs) using the broth micro-dilution technique as approved by the Clinical and Laboratory Standards Institute (CLSI) (Methods for Dilution Antimicrobial Susceptibility Tests for Bacteria that Grow Aerobically; Approved Standard—Eighth Edition. CLSI document M07-A8. Wayne, Pa.: Clinical and Laboratory Standards; 2009). Antibacterial activity was measured against three strains of bacteria: a Methicillin Resistant Staphylococcus aureus strain USA 300 (NRS384); a MRSA COL (NRS100), another Methicillin Resistant Staphylococcus aureus strain; and a strain of Escherichia coli MC4100 harboring the IMP4213, which results in increased outer-membrane permeability (B Martin and Silhavy T. Imp/OstA is required for cell envelope biogenesis in Escherichia coli. (2002) Molecular Microbiology, 45(5), 1289-1302). Cells were inoculated onto plates of Trypyticase Soy Agar or Luria Agar respectively and grown at 35° C. for 20 hours. Inocula suspensions were prepared by scraping cells into 1 ml of testing media (cation adjusted Mueller Hinton Broth supplemented with 0.002% v/v Tween-80) and diluting to a final OD600 nm of 0.01.
(§2) Test compounds were prepared in DMSO at a concentration of 10 mg/ml. These compound stocks were diluted into testing media at a concentration of 64 μg/ml and serial 2-fold dilutions were made in the same media, in 96-well U bottom microtiter dishes, for a total of 10 compound concentrations (Table 1). In modified protocols (Table 2), compound stocks were diluted into testing media at a concentration of 4 μg/mL and serial 2-fold dilutions were made in the same media, in 96-well U bottom microtiter dishes, for a total of 10 compound concentrations. Inocula suspensions were added to the 2-fold serial dilutions of test compounds to a final density of OD OD600 nm of 0.0005 and incubated at 35° C. for 22 hours. […] The results from the protocol starting from a concentration of 64 µg/mL are listed in Table 1 and the results from the modified protocol are shown in Table 2.

[2] = test system: Escherichia coli MC4100 harboring the IMP4213; assay type: cell-based; settings: 35° C., 22 hours; for MIC: Escherichia coli, 22 h, read-out: MIC (μg/mL) E. coli, Table 1 protocol: serial 2-fold dilutions starting from 64 μg/ml
Protocol: as §1, §2

MRSA COL (NRS100) = assay type: cell-based, Staphylococcus aureus; settings: for MIC: Staphylococcus aureus, 22 h, read-out: MIC (μg/mL) (COL)
Protocol: as §1, §2

[3] = Table 1 protocol: serial 2-fold dilutions starting from 64 μg/ml, 35° C., 22 hours

SMILES	MIC [1, 3]	MIC [2]	MIC [1]	MIC (MRSA COL (NRS100))	further results
C[C@@H]1NC(=O)[C@@H](N(C)C(=O)[C@H](CCCCN)NC(=O)c2ccc(-c3ccc(Cl)cc3)cc2)c2ccc(O)c(c2)-c2cc(ccc2O)C[C@@H](C(=O)N[C@@H](C)C(=O)C2CO2)NC1=O (stereo partly shown) [Compound 104]	2.8 µg/mL (≈ 3.28 µM)	2 µg/mL (≈ 2.34 µM)			MIC (MRSA COL (NRS100); [3]): 2 µg/mL (≈ 2.34 µM)
CC(=O)[C@H](C)NC(=O)[C@@H]1Cc2ccc(O)c(c2)-c2cc(ccc2O)[C@H](N(C)C(=O)[C@H](CCCCN)NC(=O)c2ccc(-c3ccc(Cl)cc3)cc2)C(=O)N[C@@H](C)C(=O)N1 [Compound 109]		64 µg/mL (≈ 77.5 µM)	4 µg/mL (≈ 4.85 µM)	1 µg/mL (≈ 1.21 µM)	
CCCCCCCCCCNCCC(=O)N[C@@H](CCCCN)C(=O)N(C)[C@@H]1C(=O)N[C@@H](C)C(=O)N[C@H](C(=O)O)Cc2ccc(O)c(c2)-c2cc1ccc2O [Compound 110]		64 µg/mL (≈ 85 µM)	29 µg/mL (≈ 38.5 µM)	8 µg/mL (≈ 10.6 µM)	
CCCCCCCCCNCCCC(=O)N[C@@H](CCCCN)C(=O)N(C)[C@@H]1C(=O)N[C@@H](C)C(=O)N[C@H](C(=O)N[C@@H](C)C(C)=O)Cc2ccc(O)c(c2)-c2cc1ccc2O [Compound 111]	23 µg/mL (≈ 28 µM)	> 64 µg/mL			MIC (MRSA COL (NRS100); [3]): 4 µg/mL (≈ 4.87 µM)
CCCCCCCCCCNCC(=O)N[C@@H](CCCCN)C(=O)N(C)[C@@H]1C(=O)N[C@@H](C)C(=O)N[C@H](C(=O)N[C@@H](C)C(C)=O)Cc2ccc(O)c(c2)-c2cc1ccc2O [Compound 112]					MIC (μg/mL) S. aureus [1, 3]: 2.8 µg/mL (≈ 3.47 µM); MIC (μg/mL) E. coli ([2]; Table 1 protocol: serial 2-fold dilutions starting from 64 μg/ml): 64 µg/mL (≈ 79.2 µM); MIC (μg/mL) (COL) (MRSA COL (NRS100); [3]): 0.5 µg/mL (≈ 0.619 µM)
CCCCCCCCCCNCCC(=O)N[C@@H](CCCCN)C(=O)N(C)[C@@H]1C(=O)N[C@@H](C)C(=O)N[C@H](C(=O)O)Cc2ccc(O)c(c2)-c2cc1ccc2OCCN [Compound 113]		25 µg/mL (≈ 31.4 µM)	9.5 µg/mL (≈ 11.9 µM)	2 µg/mL (≈ 2.51 µM)	
CCCCCCCCCCNCCC(=O)N[C@@H](CCCCN)C(=O)N(C)[C@@H]1C(=O)N[C@@H](C)C(=O)N[C@H](C(=O)N[C@@H](C)C(C)=O)Cc2ccc(O)c(c2)-c2cc1ccc2O [Compound 114]		32 µg/mL (≈ 38.9 µM)	> 64 µg/mL	1 µg/mL (≈ 1.22 µM)	
CCCCCCCCCCNCCC(=O)N[C@@H](CCCCN)C(=O)N(C)[C@@H]1C(=O)N[C@@H](C)C(=O)N[C@H](C(=O)N[C@@H](C)C(=O)COC(C)=O)Cc2ccc(O)c(c2)-c2cc1ccc2OCCN [Compound 116]		13 µg/mL (≈ 14.1 µM)	0.35 µg/mL (≈ 0.379 µM)	0.063 µg/mL (≈ 0.0682 µM)	
CC(=O)OCC(=O)[C@H](C)NC(=O)[C@@H]1Cc2ccc(O)c(c2)-c2cc(ccc2OCCN)[C@H](N(C)C(=O)[C@H](CCCCN)NC(=O)c2ccc(-c3ccc(Cl)cc3)cc2)C(=O)N[C@@H](C)C(=O)N1 [Compound 117]		1.6 µg/mL (≈ 1.73 µM)	0.71 µg/mL (≈ 0.766 µM)	0.22 µg/mL (≈ 0.237 µM)	
C[C@H](NC(=O)[C@@H]1Cc2ccc(O)c(c2)-c2cc(ccc2OCCN)[C@H](N(C)C(=O)[C@H](CCCCN)NC(=O)c2ccc(-c3ccc(Cl)cc3)cc2)C(=O)N[C@@H](C)C(=O)N1)C(=O)CO [Compound 118]		2 µg/mL (≈ 2.26 µM)	1 µg/mL (≈ 1.13 µM)	0.63 µg/mL (≈ 0.712 µM)	
CC(=O)[C@H](C)NC(=O)[C@@H]1Cc2ccc(O)c(c2)-c2cc(ccc2OCCN)[C@H](N(C)C(=O)[C@H](CCCCN)NC(=O)c2ccc(-c3ccc(Cl)cc3)cc2)C(=O)N[C@@H](C)C(=O)N1 [Compound 119]		5.3 µg/mL (≈ 6.1 µM)	1 µg/mL (≈ 1.15 µM)	0.5 µg/mL (≈ 0.576 µM)	
CC(=O)[C@H](C)NC(=O)[C@@H]1Cc2ccc(O)c(c2)-c2cc(ccc2OCC(=O)O)[C@H](N(C)C(=O)[C@H](CCCCN)NC(=O)c2ccc(-c3ccc(Cl)cc3)cc2)C(=O)N[C@@H](C)C(=O)N1 [Compound 120]		64 µg/mL (≈ 72.4 µM)	51 µg/mL (≈ 57.7 µM)	13 µg/mL (≈ 14.7 µM)	
CC(=O)[C@H](C)NC(=O)[C@@H]1Cc2ccc(O)c(c2)-c2cc(ccc2OCCO)[C@H](N(C)C(=O)[C@H](CCCCN)NC(=O)c2ccc(-c3ccc(Cl)cc3)cc2)C(=O)N[C@@H](C)C(=O)N1 [Compound 121]		32 µg/mL (≈ 36.8 µM)	8 µg/mL (≈ 9.2 µM)	3 µg/mL (≈ 3.45 µM)	
C[C@H](NC(=O)[C@@H]1Cc2ccc(O)c(c2)-c2cc(ccc2O)[C@H](N(C)C(=O)[C@H](CCCCN)NC(=O)c2ccc(-c3ccc(Cl)cc3)cc2)C(=O)N[C@@H](C)C(=O)N1)C(=O)CO [Compound 124]		16 µg/mL (≈ 19 µM)	1 µg/mL (≈ 1.19 µM)	0.5 µg/mL (≈ 0.594 µM)	
C[C@H](NCC(=O)[C@H](C)NC(=O)[C@@H]1Cc2ccc(O)c(c2)-c2cc(ccc2O)[C@H](N(C)C(=O)[C@H](CCCCN)NC(=O)c2ccc(-c3ccc(Cl)cc3)cc2)C(=O)N[C@@H](C)C(=O)N1)C(N)=O [Compound 125]			32 µg/mL (≈ 35.1 µM)	8 µg/mL (≈ 8.78 µM)	
CCOC(=O)CCC(=O)[C@H](C)NC(=O)[C@@H]1Cc2ccc(O)c(c2)-c2cc(ccc2O)[C@H](N(C)C(=O)[C@H](CCCCN)NC(=O)c2ccc(-c3ccc(Cl)cc3)cc2)C(=O)N[C@@H](C)C(=O)N1 [Compound 146]			16 µg/mL (≈ 17.6 µM)	8 µg/mL (≈ 8.78 µM)	
C[C@H](NC(=O)[C@@H]1Cc2ccc(O)c(c2)-c2cc(ccc2O)[C@H](N(C)C(=O)[C@H](CCCCN)NC(=O)c2ccc(-c3ccc(Cl)cc3)cc2)C(=O)N[C@@H](C)C(=O)N1)C(=O)CCC(N)=O [Compound 148]			64 µg/mL (≈ 72.5 µM)	32 µg/mL (≈ 36.3 µM)	
C[C@@H]1NC(=O)[C@@H](N(C)C(=O)[C@H](CCCCN)NC(=O)c2ccc(-c3ccc(Cl)cc3)cc2)c2ccc(O)c(c2)-c2cc(ccc2O)C[C@@H](C(=O)N[C@@H](C)C(=O)N2C[C@H]3C[C@H]3[C@H]2C(N)=O)NC1=O [Compound 170]	45 µg/mL (≈ 48.1 µM)	64 µg/mL (≈ 68.4 µM)			
C[C@@H]1NC(=O)[C@@H](N(C)C(=O)[C@H](CCCCN)NC(=O)c2ccc(-c3ccc(Cl)cc3)cc2)c2ccc(O)c(c2)-c2cc(ccc2O)C[C@@H](C(=O)N[C@@H](C)C(=O)N2CC[C@H]2C(N)=O)NC1=O [Compound 171]	20 µg/mL (≈ 22 µM)	64 µg/mL (≈ 70.4 µM)			
C[C@@H]1NC(=O)[C@@H](N(C)C(=O)[C@H](CCCCN)NC(=O)c2ccc(-c3ccc(Cl)cc3)cc2)c2ccc(O)c(c2)-c2cc(ccc2O)C[C@@H](C(=O)N[C@@H](C)C(=O)N2C[C@@H](F)C[C@H]2C(N)=O)NC1=O [Compound 172]	16 µg/mL (≈ 17 µM)	64 µg/mL (≈ 68 µM)			
C[C@@H]1NC(=O)[C@@H](N(C)C(=O)[C@H](CCCCN)NC(=O)c2ccc(-c3ccc(Cl)cc3)cc2)c2ccc(O)c(c2)-c2cc(ccc2O)C[C@@H](C(=O)N[C@@H](C)C(=O)N2CCCC[C@H]2C(N)=O)NC1=O [Compound 173]	64 µg/mL (≈ 68.3 µM)	32 µg/mL (≈ 34.1 µM)			
C[C@@H]1NC(=O)[C@@H](N(C)C(=O)[C@H](CCCCN)NC(=O)c2ccc(-c3ccc(Cl)cc3)cc2)c2ccc(O)c(c2)-c2cc(ccc2O)C[C@@H](C(=O)N[C@@H](C)C(=O)N2CC(F)(F)C[C@H]2C(N)=O)NC1=O [Compound 174]	9.5 µg/mL (≈ 9.9 µM)	64 µg/mL (≈ 66.7 µM)			
C[C@@H]1NC(=O)[C@@H](N(C)C(=O)[C@H](CCCCN)NC(=O)c2ccc(-c3ccc(Cl)cc3)cc2)c2ccc(O)c(c2)-c2cc(ccc2O)C[C@@H](C(=O)N[C@@H](C)C(=O)N2CCC[C@H]2C(=O)NCC(N)=O)NC1=O [Compound 178]	32 µg/mL (≈ 32.6 µM)				MIC (MRSA COL (NRS100); [3]): 16 µg/mL (≈ 16.3 µM)
C[C@@H]1NC(=O)[C@@H](N(C)C(=O)[C@H](CCCCN)NC(=O)c2ccc(-c3ccc(Cl)cc3)cc2)c2ccc(O)c(c2)-c2cc(ccc2O)C[C@@H](C(=O)NCC(=O)N2CC[C@H](O)[C@H]2C(N)=O)NC1=O [Compound 180]	64 µg/mL (≈ 69.2 µM)	64 µg/mL (≈ 69.2 µM)			
CC[C@H](NC(=O)[C@@H]1Cc2ccc(O)c(c2)-c2cc(ccc2O)[C@H](N(C)C(=O)[C@H](CCCCN)NC(=O)c2ccc(-c3ccc(Cl)cc3)cc2)C(=O)N[C@@H](C)C(=O)N1)C(=O)N1CCC[C@H]1C(N)=O [Compound 181]	23 µg/mL (≈ 24.5 µM)	64 µg/mL (≈ 68.3 µM)			
CONC(=O)[C@@H]1CCCN1C(=O)[C@H](C)NC(=O)[C@@H]1Cc2ccc(O)c(c2)-c2cc(ccc2O)[C@H](N(C)C(=O)[C@H](CCCCN)NC(=O)c2ccc(-c3ccc(Cl)cc3)cc2)C(=O)N[C@@H](C)C(=O)N1 [Compound 185]		64 µg/mL (≈ 67.1 µM)	45 µg/mL (≈ 47.2 µM)		
CC(=O)[C@H](C)NC(=O)[C@@H]1Cc2ccc(O)c(c2)-c2cc(ccc2OCCN2CCOCC2)[C@H](N(C)C(=O)[C@H](CCCCN)NC(=O)c2ccc(-c3ccc(Cl)cc3)cc2)C(=O)N[C@@H](C)C(=O)N1 [Compound 203]	23 µg/mL (≈ 24.5 µM)				MIC (MRSA COL (NRS100); [3]): 8 µg/mL (≈ 8.52 µM)
CCCCCCCCCCCCCC(=O)N[C@@H](CCN)C(=O)N(C)[C@@H]1C(=O)N[C@@H](C)C(=O)N[C@H](C(=O)O)Cc2ccc(OCCN)c(c2)-c2cc1ccc2OCCN [Compound 299]			0.19 µg/mL (≈ 0.235 µM)	0.031 µg/mL (≈ 0.0383 µM)	
